Assay results reported in patent US20110306541A1, “METHODS FOR TREATING HCV” (priority 2010, published 2011).
Each block holds one compound with its values, some of them ahead of it.

What was measured:
[1] = Drug-drug interaction on co-administration; format: in vivo
HCV 1b replicon = test: Renilla luciferase (RLuc)-based HCV replicon reporter assay - HCV 1b RLuc; format: cell-based; details: Hepatitis C virus; Table I; HCV 1b RLuc replicon
[2] = Exposure (AUC) corresponding to dose; format: in vivo, human; details: for AUC: human, in vivo
[3] = Bilirubin elevations related to dose of Compound 3; format: in vivo, human; details: doses above 400 mg

increase of the exposure of Compound 1 ([1]; co-administered with Compound 2): 2-3 ×
Structure (SMILES): Fc1ccccc1-c1nc2ccn(Cc3ccc(-c4ccc(C(F)(F)F)cc4C(F)(F)F)nn3)cc-2n1 [Compound 1, 5-((6-(2,4-bis(trifluoromethyl)phenyl)pyridazin-3-yl)methyl)-2-(2-fluorophenyl)-5H-imidazo[4,5-c]pyridine]
effect on drug metabolizing systems ([1]; in vivo): it does not appear that Compound 1 affects drug metabolizing systems

Structure (SMILES): COC(=O)N[C@H](C(=O)N1CCC[C@H]1c1nc(C#Cc2ccc3cc(-c4cnc([C@@H]5CC(F)(F)CN5C(=O)[C@@H](NC(=O)OC)C(C)C)[nH]4)ccc3c2)c[nH]1)C(C)C
EC50 (HCV 1b replicon): 14.7 pM

exposure ([2]; 3 mg dose): 32.3 ng·h/mL | exposure ([2]; 30 mg dose): 1415.2 ng·h/mL | exposure ([2]; 90 mg dose): 4137.9 ng·h/mL | exposure ([2]; 100 mg dose): 11166.6 ng·h/mL | exposure ([2]; 300 mg dose): 38900 ng·h/mL
Structure (SMILES): COC(=O)NC(C(=O)N1CC2(CC2)CC1c1ncc(-c2ccc3c(c2)C(F)(F)c2cc(-c4ccc5nc(C6C7CCC(C7)N6C(=O)C(NC(=O)OC)C(C)C)[nH]c5c4)ccc2-3)[nH]1)C(C)C (stereo not drawn) [Compound 16, (1-{3-[6-(9,9-Difluoro-7-{2-[5-(2-methoxycarbonylamino-3-methyl-butyryl)-5-aza-spiro[2.4]hept-6-yl]-3H-imidazol-4-yl}-9H-fluoren-2-yl)-1H-benzoimidazol-2-yl]-2-aza-bicyclo[2.2.1]heptane-2-carbonyl}-2-methyl-propyl)-carbamic acid methyl ester]

Structure (SMILES): COC(=O)N[C@H](C(=O)N1CCC[C@H]1c1ncc(-c2ccc3cc(-c4ccc(-c5cnc([C@@H]6CCCN6C(=O)[C@H](NC(=O)OC)c6ccccc6)[nH]5)cc4)ccc3c2)[nH]1)C(C)C
EC50 (HCV 1b replicon): 8.1 pM

bilirubin elevations [3]: more bilirubin elevations in some cases | AUC ([2]; 10 mg dose): 272 ng·h/mL | AUC ([2]; 1000 mg dose): 48400 ng·h/mL
Structure (SMILES): CC[C@@H]1C[C@]1(NC(=O)[C@@H]1C[C@@H](Oc2cc(-c3csc(NC(C)C)n3)nc3c(Cl)c(OCCN4CCOCC4)ccc23)CN1C(=O)[C@@H](NC(=O)O[C@@H]1C[C@@H]2C[C@@H]2C1)C(C)(C)C)C(=O)O [Compound 3]

Structure (SMILES): COC(=O)N[C@H](C(=O)N1CCC[C@H]1c1ncc(-c2cc3cc4sc(-c5cnc([C@@H]6CCCN6C(=O)[C@@H](NC(=O)OC)C(C)C)[nH]5)cc4cc3s2)[nH]1)C(C)C
EC50 (HCV 1b replicon): 7.7 pM

Structure (SMILES): COC(=O)N[C@H](C(=O)N1CCC[C@H]1c1ncc(C#CC2=CC3SC(c4cnc([C@@H]5CCCN5C(=O)[C@@H](NC(=O)OC)C(C)C)[nH]4)=CC3S2)[nH]1)C(C)C (stereo partly drawn)
EC50 (HCV 1b replicon): 50.3 pM

Structure (SMILES): COC(=O)N[C@H](C(=O)N1CCC[C@H]1c1ncc(-c2ccc3cc4cc(-c5cnc([C@@H]6CCCN6C(=O)[C@@H](NC(=O)OC)C(C)C)[nH]5)ccc4cc3c2)[nH]1)C(C)C
EC50 (HCV 1b replicon): 7 pM
